Legend:
[1] = test system: hypoxia-inducible factor-1 transcription; design: method as in PMID 17256467; details: under hypoxic conditions; cited from earlier work
[2] = test system: rodent malaria; design: method as in PMID 994322; details: cited from earlier work
[3] = test system: Gram positive bacteria; details: cited from earlier work
[4] = test system: Gram negative bacteria; details: cited from earlier work
[5] = test system: Plasmodium falciparum; test: P. falciparum-infected erythrocyte proliferation, SYBR green incorporation; type: cell-based; details: infected erythrocytes, 72 hours; read-out: EC50 against P. falciparum
Text: The maintenance of Plasmodium falciparum cultures and conducting of in vitro inhibitor response assays have been previously described.

[6] = test system: NLRP3 inflammasome; design: method as in PMID 30183250; details: through activity as a potassium ionophore; cited from earlier work
[7] = test system: poultry coccidiosis; design: method as in earlier work; details: cited from earlier work

## C[C@@H]1C(=O)C[C@@H](O)CC/C=C/C=C\CC[C@H](C)OC(=O)[C@@H]2O[B-]34O[C@@H](C(=O)O[C@@H](C)CC/C=C\C=C\CC[C@H](O)CC(=O)[C@@H](C)[C@@H]5CC[C@](C)(O)[C@]2(O5)O3)[C@@]2(O[C@H]1CC[C@]2(C)O)O4 [Tartrolon C]
[1]
  Inhibition of hypoxia-inducible factor-1 transcription: inhibit hypoxia-inducible factor-1 transcription

## C[C@@H]1CC[C@@H]2O[C@]13O[B-]14O[C@H]3C(=O)O[C@H]3C[C@@H](/C=C/C[C@@H](O)C(C)(C)[C@@H]5CC[C@@H](C)[C@](O5)(O1)[C@@H](O4)C(=O)O[C@H]1C[C@@H](/C=C/C[C@@H](O)C2(C)C)O[C@@H]1C)O[C@@H]3C.[Na+] [aplasmomycin]
[2]
  In vivo activity against rodent malaria: active in vivo

## C[C@@H]1C(=O)C[C@@H](O)CC/C=C/C=C\CC[C@H](C)OC(=O)C(O)[C@]2(O)O[C@@H](CC[C@H]2C)[C@H](C)C(=O)C[C@@H](O)CC/C=C/C=C\CC[C@H](C)OC(=O)C(O)[C@]2(O)O[C@H]1CC[C@H]2C (stereo partly drawn) [Tartrolon A]
[3]
  Activity against Gram positive bacteria: activity against Gram positive
[4]
  Activity against Gram negative bacteria: not Gram negative bacteria

## C[C@H]1[C@@H](O)O[C@@H]2O[C@@]3(C)CC[C@H]4[C@H](C)CC[C@@H]1[C@@]24OO3 [DHA, dihydroartemesinin, reference compound]
[5]
  EC50: 0.02 nM

## C[C@@H]1C(=O)C[C@@H](O)CC/C=C\C=C\CC[C@H](C)OC(=O)[C@@H]2O[B-]34O[C@@H](C(=O)O[C@@H](C)CC/C=C\C=C\CC[C@H](O)CC(=O)[C@@H](C)[C@@H]5CC[C@@H](C)[C@]2(O5)O3)[C@@]2(O[C@H]1CC[C@H]2C)O4.[Na+] [Tartrolon B]
[3]
  Activity against Gram positive bacteria: activity against Gram positive
[4]
  Activity against Gram negative bacteria: not Gram negative bacteria
[6]
  Activation of the NLRP3 inflammasome: activate the NLRP3 inflammasome

## CC(C)[C@@H](N)C(=O)O[C@H](C)[C@@H]1C/C=C\CC[C@H](O)C(C)(C)[C@@H]2CC[C@@H](C)[C@@]3(O2)O[B-]24O[C@@H](C(=O)O1)[C@]1(O[C@@H](CC[C@H]1C)C(C)(C)[C@H](O)CCC[C@@H]1C[C@H](OC(=O)[C@@H]3O2)[C@@H](C)O1)O4.[H+] [boromycin]
[7]
  In vivo activity against poultry coccidiosis: active in vivo
